Results reported in patent publication US8114581B2, “Methods and compositions for detecting neoplastic cells” (The Regents of the University of California, priority 2005, dated 2012).

How the values were obtained:
Format in all cases: cell-based
[1] = target: T1, Src (Homo sapiens, UniProt P12931); test: EGF-induced FRET response of Src reporter in HeLa cells
T1 construct: endogenous in cells; host or cells: HeLa
Experimental: The HeLa or MEF cells expressing the desired exogenous proteins were starved with 0.5% FBS for 36-48 h before being subjected to EGF (50 ng ml^−1) or PDGF (10 ng ml^−1) stimulation. During imaging, the cells were maintained in Hanks' balanced salt solution (HBSS) with 20 mMHEPES (pH 7.4) and 2 g 1^−1 D-glucose at 25° C. Images were collected by using MetaFluor 6.0 software (Universal Imaging) with a 440DF20 excitation filter, a 455DRLP dichroic mirror, and two emission filters controlled by a filter changer (480DF30 for CFP and 535DF25 for YFP).
The various plasmids were transfected into HeLa, MEF, SYF−/−, or 293 cells at 80% confluence using the lipofectamine method (Invitrogen). The RetroMax retroviral expression system (Imgenex) was used to introduce genes into HUVECs. Various Src reporters incorporated in PCLNCX vector were co-transfected with PCL-Ampho packaging vector into 293 cells by using lipofectamine. The supernatant of […] 293 cells was collected after 2 days of transfection and filtered through 0.45 um pore filters. HUVECs were infected with 1:1 mixture of the collected supernatant and fresh EGM in the presence of 8 ug/ml polybrene.

[2] = target: T1, Src; test: Fibronectin-coated bead / laser-tweezer force-induced FRET response in HUVECs; details: HUVECs expressing Src reporter, PP1 10 uM
Experimental: (§1) To image the mechanical-force-induced Src activation, HUVECs were first starved with 0.5% FBS for 24 h and then kept in CO2-independent medium without serum (Gibco BRL) at 37° C. in a thermostatic chamber. A Zeiss axiovert inverted microscope equipped with a 440DF20 excitation filter and a 455DRLP dichroic mirror was integrated with the laser-tweezers. CFP and YFP emission images were acquired simultaneously with an ORCA ER CCD camera (Hamamatsu) through a Dual-View module (Optical-Insights). The CFP and YFP images were aligned pixel-by-pixel with our customized Matlab program by maximizing the normalized cross correlation coefficient of CFP and YFP fluorescence intensity images:
(§2) By taking the derivative of rho 2/B(κ) in Otsu's method 30 and calculating its first local minimum, a non parametric method was developed to calculate the intensity threshold to differentiate the edges of HUVECs from the background in CFP or YFP fluorescence intensity images. The intensity threshold was used to generate a binary mask image with values outside the cell set at zero to select the pixels located within the cell body in the CFP/YFP emission ratio images. […] For statistical analysis of long-range activation of Src, a pixel located within a cell at a given time is defined as ‘distally activated’ when: (1) its emission ratio value is above a certain percentage (98%, 90%, 80% and 50% were used as the thresholds) of pixel population in the same cell after 15 min of force stimulation, and (2) the distance between the pixel and the centre of the force-imposed bead is larger than half of the virtual radius of the cell, as shown in the following formula: […]
(§3) This critical force is a measure of the maximum trapping force, at a given laser power, exerted on the bead. […] Since the maximum trapping force occurs when the laser focus is away from the center and close to the edge of the bead, the experimental trapping force with the laser focused at 3.7 um off the bead center in our experiments was calculated from the Ashkin model of trapping force to be 300 pN. […]

[3] = system: Src; test: as above; details: HUVECs, membrane-targeted reporter, 300 pN; 1 hr incubation (cytochalasin D 0.2 uM, Nocodazole 1 uM); distal, but not local, responses
Experimental: as §1, §2, §3

T1 sequence (P12931 whole entry, species assumed): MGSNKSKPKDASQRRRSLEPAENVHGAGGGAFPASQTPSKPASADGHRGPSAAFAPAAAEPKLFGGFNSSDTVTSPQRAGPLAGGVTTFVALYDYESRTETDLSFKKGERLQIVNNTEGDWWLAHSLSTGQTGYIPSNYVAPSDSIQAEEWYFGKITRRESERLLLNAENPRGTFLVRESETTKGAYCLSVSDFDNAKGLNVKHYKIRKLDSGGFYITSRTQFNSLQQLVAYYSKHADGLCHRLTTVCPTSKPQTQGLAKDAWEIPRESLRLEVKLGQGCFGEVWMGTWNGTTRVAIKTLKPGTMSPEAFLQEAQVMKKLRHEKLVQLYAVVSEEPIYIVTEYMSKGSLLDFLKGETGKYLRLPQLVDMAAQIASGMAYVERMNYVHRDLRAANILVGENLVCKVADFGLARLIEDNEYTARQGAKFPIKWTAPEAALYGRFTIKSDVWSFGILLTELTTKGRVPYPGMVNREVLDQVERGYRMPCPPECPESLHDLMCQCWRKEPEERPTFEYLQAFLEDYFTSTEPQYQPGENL

Row | effect on EGF-induced FRET response of membrane-targeted reporter, inhibitor added after EGF ([1]; EGF 50 ng/ml, PP1 10 uM) | effect on EGF-induced FRET response of membrane-targeted reporter, pretreatment with inhibitor ([1]; PP1 10 uM for 1 hr before EGF 50 ng/ml) | effect on EGF-induced FRET response of Src reporter, inhibitor added after EGF ([1]; cytosolic Src reporter) | effect on EGF-induced FRET response of Src reporter, pretreatment with inhibitor ([1]; cytosolic Src reporter) | effect on local FRET response caused by fibronectin-coated beads [2] | SMILES | effect on force-induced distal FRET responses [3]
1 | reversed | prevented | reversed | markedly reduced | reversible | Cc1ccc(-c2nn(C(C)(C)C)c3ncnc(N)c23)cc1 [PP1] | 
2 |  |  |  |  |  | C=C1[C@@H](C)[C@H]2[C@H](Cc3ccccc3)NC(=O)[C@]23[C@H](OC(C)=O)/C=C/[C@@](C)(O)C(=O)[C@@H](C)C/C=C/[C@H]3[C@@H]1O [cytochalasin D] | blocked
3 |  |  |  |  |  | COC(=O)Nc1nc2ccc(C(=O)c3cccs3)cc2[nH]1 [nocodazole] | blocked
